Test results reported in US4525358A, “2-[4-(Diphenylmethyl)-1-piperazinyl]-acetic acids and their amides” (UCB Pharmaceuticals, Inc., priority 1981, dated 1985).
Read-outs that look alike come from different tables or passages of the source.

Legend:
[1] = test system: bronchospasms induced by serotonin; assay: inhibition of serotonin-induced bronchospasms (Konzett and Roessler), spasmolytic activity; assay type: in vivo, guinea pig; details: for ED50: Cavia porcellus, iv, read-out: ID 50, inhibition of bronchospasms induced by serotonin
Procedure: (§1) Anaesthetized and curarized guinea pigs are subjected to artificial ventilation. The endotracheal pressure is recorded. Repetitive bronchial spasms are induced by successive and progressive intravenous injections of serotonin and histamine, respectively. The test compounds are also administered intravenously.

[2] = test system: bronchospasms induced by histamine; assay: inhibition of histamine-induced bronchospasms (Konzett and Roessler), antihistaminic activity; assay type: in vivo, guinea pig; details: for ED50: Cavia porcellus, iv, read-out: ID 50, inhibition of bronchospasms induced by histamine
Procedure: as §1

mice = details: intraperitoneal, two animals out of three
Description: In the following Table IV, the lethal doses in mg/kg (two animals out of three) are given for compounds of the invention when administered intraperitoneally in mice:

[3] = test system: passive cutaneous anaphylaxis; assay: passive cutaneous anaphylaxis test (PCA), antiallergic activity; assay type: in vivo; details: rats; for ED50: Rattus norvegicus, po, read-out: ID 50 per os (reduction of 50% of the surface area of the colored spot); for ED50 / antiallergic activity (PCA), in words: per os
Procedure: This activity is determined in rats by means of the passive cutaneous anaphylaxis test (PCA) (see J. GOOSE and A. M. J. N. BlAIR, Immunology, 16, (1969), 749-760; and […] and D. ROEMER, Arzneimittel-Forschung, 28, (5), (1978), 770-782). Female rats are used, the sides of which have been partly shaved. Into the zone thus shaved there is injected intradermally, for passive sensitization of the animals, 0.05 ml of IGE antiovalbumin serum at a dilution such that, at the time of the PCA test, a distinct spot with a surface area of about 100 mm^2 appears at the point of injection. […] At the point of intradermal injection, there appears a distinct blue spot, the surface of which is measured. In order to test the activity of the compounds according to the present invention, the procedure is carried out in the same manner; however, the test compound is administered orally 72 hours after injection of the serum; 15 minutes after this administration, 0.25 ml of the solution of the allergen is injected intravenously; 30 minutes after the administration of the allergen, the surface of the blue spot is measured.

[4] = test system: general behaviour of mice; assay: general behaviour of mice (Irwin's test), tranquilization; assay type: in vivo
[5] = Belgian Patent Specification No. 763,609; cited from earlier work
[6] = J. med. Chem. 11 (1968), 390-391; cited from earlier work
[7] = intravenous; cited from earlier work
[8] = guinea pig, intravenous, serotonin
[9] = guinea pig, intravenous, histamine

Row | Structure (SMILES) | ED50 [1, 8] [µmol/kg] | ED50 [2, 9] [µmol/kg] | Lethal dose (2/3) (mice) [mg/kg] | ED50 ([3]; 15 minutes before allergen) [µmol/kg] | Tranquilizing dose (first manifestations of tranquilization) ([4]; male mice, intraperitoneal) [mg/kg] | other results
1 | NC(=O)COCCN1CCN(C(c2ccccc2)c2ccccc2)CC1 [A, 2-[2-[4-(Diphenylmethyl)-1-piperazinyl]ethoxy]-acetamide] | 0.78 | 0.23 | 255 |  |  | 
2 | NC(=O)COCCN1CCN(C(c2ccccc2)c2ccc(Cl)cc2)CC1 (centres unmarked) [B, 2-[2-[4-[(4-chlorophenyl)phenylmethyl]-1-piperazinyl]ethoxy]-acetamide] | 0.88 | 0.45 | 232 | 36.5 | 38.7 | 
3 | NC(=O)COCCN1CCN(C(c2ccccc2)c2ccc(F)cc2)CC1 (centres unmarked) [C, 2-[2-[4-[(4-fluorophenyl)phenylmethyl]-1-piperazinyl]ethoxy]-acetamide] | 0.94 | 0.71 | 386 | 18.9 | 115 | 
4 | NC(=O)CN1CCN(C(c2ccccc2)c2ccccc2)CC1 [Compound 1, 2-[4-(diphenylmethyl)-1-piperazinyl]-acetamide, reference compound] | 77 | 2.1 |  | > 320 |  | antiallergic activity (PCA), in words [3]: of little interest; activity with regard to bronchospasms induced by serotonin (antispasmodic), in words [1, 8]: considerbly less active; activity with regard to bronchospasms induced by histamine (antihistaminic), in words [2, 9]: considerbly less active; diuretic activity [5]: possesses a diuretic activity
5 | NC(=O)CN1CCN(C(c2ccccc2)c2ccc(Cl)cc2)CC1 (centres unmarked) [Compound 2, 2-[4-[(4-chlorophenyl)phenylmethyl]-1-piperazinyl]-acetamide, reference compound] | 11 | 3.1 |  | > 320 |  | antiallergic activity (PCA), in words [3]: of little interest; activity with regard to bronchospasms induced by serotonin (antispasmodic), in words [1, 8]: considerbly less active; activity with regard to bronchospasms induced by histamine (antihistaminic), in words [2, 9]: considerbly less active; activity as a hypocholesteremic agent [6]: not very encouraging
6 | O=C(O)CN1CCN(C(c2ccccc2)c2ccccc2)CC1 [Compound 3, 2-[4-(diphenylmelthyl)-1-piperazinyl]-acetic acid, reference compound] | > 32 | 5 |  | > 320 |  | antiallergic activity (PCA), in words [3]: of little interest; activity with regard to bronchospasms induced by serotonin (antispasmodic), in words [1, 8]: considerbly less active; activity with regard to bronchospasms induced by histamine (antihistaminic), in words [2, 9]: considerbly less active
7 | O=C(O)CN1CCN(C(c2ccccc2)c2ccc(Cl)cc2)CC1 (centres unmarked) [Compound 4, reference compound] | > 32 | 7.8 |  | > 320 |  | antiallergic activity (PCA), in words [3]: of little interest; activity with regard to bronchospasms induced by serotonin (antispasmodic), in words [1, 8]: considerbly less active; activity with regard to bronchospasms induced by histamine (antihistaminic), in words [2, 9]: considerbly less active
8 | Cl.Cl.NC(=O)COCCN1CCN(C(c2ccccc2)c2ccccc2Cl)CC1 (centres unmarked) [D, 2-[2-[4-[(2-chlorophenyl)phenylmethyl]-1-piperazinyl]ethoxy]-acetamide dihydrochloride] | 1.1 | 0.63 | 460 |  | > 460 | 
9 | COc1ccc(C(c2ccccc2)N2CCN(CCOCC(N)=O)CC2)cc1.Cl.Cl (centres unmarked) [E, 2-[2-[4-[(4-methoxyphenyl)phenylmethyl]-1-piperazinyl]ethoxy]-acetamide dihydrochloride] | 10 | 0.67 | 456 |  | 136 | 
10 | Cl.Cl.NC(=O)COCCOCCN1CCN(C(c2ccccc2)c2ccccc2)CC1 [F, 2-[2-[2-[4-(Diphenylmethyl)-1-piperazinyl]ethoxy]ethoxy]-acetamide dihydrochloride] | 0.32 | 0.25 | 282 | 10.6 | 94 | 
11 | Cl.Cl.NC(=O)COCCOCCN1CCN(C(c2ccccc2)c2ccc(Cl)cc2)CC1 (centres unmarked) [G, 2-[2-[2-[4-[(4-chlorophenyl)phenylmethyl]-1-piperazinyl]ethoxy]ethoxy]-acetamide dihydrochloride] | 0.66 | 1.14 | 339 |  | 34 | 
12 | O=C([O-])COCCN1CCN(C(c2ccccc2)c2ccc(Cl)cc2)CC1.[K+] (centres unmarked) [H, potassium 2-[2-[4-[(4-chlorophenyl)phenylmethyl]-1-piperazinyl]ethoxy]-acetate] |  |  |  |  | 46.2 | ED50 [1]: 7 µmol/kg; ED50 [2]: 0.23 µmol/kg
13 | OCCOCCN1CCN(C(c2ccccc2)c2ccc(Cl)cc2)CC1 (centres unmarked) [Hydroxyzine, 2-[2-[4-[(4-chlorophenyl)phenylmethyl]-1-piperazinyl]-ethoxy]-ethanol, reference compound] |  |  |  |  |  | Tranquilizing dose (first manifestations of tranquilization) ([4]; mouse, in vivo, ip): 27 mg/kg
14 | O=C(O)COCCN1CCN(C(c2ccccc2)c2ccc(Cl)cc2)CC1 (centres unmarked) [I, 2-[2-[4-[(4-chlorophenyl)phenylmethyl]-1-piperazinyl]ethoxy]-acetic acid] | 9.44 | 0.205 |  |  |  | 
15 | O=C(O)COCCN1CCN(C(c2ccccc2)c2ccc(Cl)cc2)CC1 (centres unmarked) [J, 2-[2-[4-[(4-chlorophenyl)phenylmethyl]-1-piperazinyl]ethoxy]-acetic acid] |  |  |  |  | 138 | ID 50, inhibition of bronchospasms induced by serotonin [1, 8]: 7.3 µmol/kg; antihistaminic activity retained ([2]; guinea pig, intravenous, 1 μmol/kg single dose, after 5 hours): 100%; ID 50, inhibition of bronchospasms induced by histamine [2, 9]: 0.20 µmol/kg
16 | O=C(O)COCCN1CCN(C(c2ccccc2)c2ccccc2)CC1 [K, 2-[2-[4-(diphenylmethyl)-1-piperazinyl]ethoxy]-acetic acid] | 9.5 | 0.093 | 708 |  | 106 | 
17 | Cl.Cl.O=C(O)COCCOCCN1CCN(C(c2ccccc2)c2ccccc2)CC1 [L, 2-[2-[2-[4-(diphenylmethyl)-1-piperazinyl]ethoxy]ethoxy]-acetic acid dihydrochloride] | 5.69 | 0.39 | 942 |  | 141 | 
18 | Cl.Cl.O=C(O)COCCOCCN1CCN(C(c2ccccc2)c2ccc(Cl)cc2)CC1 (centres unmarked) [M, 2-[2-[2-[4-[(4-chlorophenyl)phenylmethyl]-1-piperazinyl]ethoxy]ethoxy]-acetic acid dihydrochloride] | 10 | 0.79 | 505 |  | 505 | 
19 | O.O=C(O)COCCN1CCN(C(c2ccccc2)c2ccc(F)cc2)CC1 (centres unmarked) [N, 2-[2-[4-[(4-fluorophenyl)phenylmethyl]-1-piperazinyl]ethoxy]-acetic acid hydrate] | 2.1 | 0.08 | 372 | 10.2 | 372 | 
20 | O=C1Nc2ccc(Cl)cc2C(c2ccccc2)=NC1O (centres unmarked) [Oxazepam, 7-chloro-1,3-dihydro-3-hydroxy-5-phenyl:2H-1,4-benzodiazepin-2-one, reference compound] |  |  |  |  | 2.6 | 
21 | Cn1c(=O)c2[nH]cnc2n(C)c1=O [Theophylline, reference compound] |  |  |  |  |  | ED50 [1]: 10 µmol/kg; ED50 [2]: 10 µmol/kg
22 | O=C(O)c1cc(=O)c2c(OCC(O)COc3cccc4oc(C(=O)O)cc(=O)c34)cccc2o1 [sodium cromoglycate] |  |  |  |  |  | ID 50 per os (reduction of 50% of the surface area of the colored spot) ([3]; 15 minutes before allergen): inactive; antiallergic activity (PCA), in words [3]: inactive; antiasthmatic activity [7]: well known for its antiasthmatic activity
